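Assay format: 96-well plates, 48-hour exposure. TGI marks complete inhibition of growth.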
Experiments:
Assay in all cases: NCI tumour cell line growth inhibition, 48 h
[1] = tested on: DMS 114 small cell lung
[2] = tested on: MALME-3M melanoma
[3] = tested on: KM12 colon
[4] = tested on: SN12C renal
[5] = tested on: SK-MEL-28 melanoma
[6] = tested on: M19-MEL melanoma
[7] = tested on: 786-0 renal
[8] = tested on: OVCAR-4 ovarian
[9] = tested on: SK-MEL-5 melanoma
[10] = tested on: UACC-257 melanoma
[11] = tested on: SK-MEL-2 melanoma
[12] = tested on: SF-268 CNS
[13] = tested on: K-562 leukemia
[14] = tested on: HOP-62 NSCLC
[15] = tested on: SF-295 CNS
[16] = tested on: SF-539 CNS
[17] = tested on: CAKI-1 renal
[18] = tested on: HOP-18 NSCLC
[19] = tested on: UO-31 renal
[20] = tested on: U251 CNS
[21] = tested on: LXFL 529 NSCLC
[22] = tested on: TK-10 renal
[23] = tested on: UACC-62 melanoma
[24] = tested on: RXF-631 renal
[25] = tested on: OVCAR-8 ovarian
[26] = tested on: ACHN renal
[27] = tested on: SNB-19 CNS
[28] = tested on: SW-620 colon
[29] = tested on: HCC-2998 colon
[30] = tested on: LOX IMVI melanoma
[31] = tested on: OVCAR-5 ovarian
[32] = tested on: HT29 colon
[33] = tested on: NCI-H460 lung
[34] = tested on: SK-OV-3 ovarian
[35] = tested on: A498 renal
[36] = tested on: NCI-H522 lung
[37] = tested on: A549 NSCLC
[38] = tested on: RPMI-8226 leukemia
[39] = tested on: SR leukemia
[40] = tested on: HCT-15 colon
[41] = tested on: NCI-H23 lung
[42] = tested on: EKVX NSCLC
[43] = tested on: DLD-1 colon
[44] = tested on: KM20L2 colon
[45] = tested on: IGROV1 ovarian
[46] = tested on: HOP-92 NSCLC
[47] = tested on: DMS 273 small cell lung
[48] = tested on: SNB-75 CNS
[49] = tested on: NCI-H226 lung
[50] = tested on: XF 498 CNS
[51] = tested on: HCT-116 colon
[52] = tested on: COLO 205 colon
[53] = tested on: M14 melanoma
[54] = tested on: RXF 393 renal
[55] = tested on: MOLT-4 leukemia
[56] = tested on: OVCAR-3 ovarian
[57] = tested on: CCRF-CEM leukemia
[58] = tested on: HL-60(TB) leukemia
[59] = tested on: SNB-78 CNS
[60] = tested on: SN12K1 renal
[61] = tested on: P388 leukemia
[62] = tested on: P388/ADR leukemia
[63] = tested on: MCF7 breast
[64] = tested on: NCI/ADR-RES ovarian

SMILES: CN(C)CCNC(=O)c1ccc(Cl)c2c(Nc3ccc(S(N)(=O)=O)cc3)c3ccccc3nc12
- TGI [1]: 4.63 µM
- TGI [2]: 12.5 µM
- TGI [3]: 5.12 µM
- TGI [4]: 10.1 µM
- TGI [5]: 9.38 µM
- TGI [6]: 4.52 µM
- TGI [7]: 9.2 µM
- TGI [8]: 6.22 µM
- TGI [9]: 11.8 µM
- TGI [10]: 12.7 µM
- TGI [11]: 4 µM
- TGI [12]: 13.8 µM
- TGI [13]: 11.4 µM
- TGI [14]: 21.6 µM
- TGI [15]: 15.3 µM
- TGI [16]: 4.79 µM
- TGI [17]: 17.1 µM
- TGI [18]: 5.92 µM
- TGI [19]: 11 µM
- TGI [20]: 14.1 µM
- TGI [21]: 11.2 µM
- TGI [22]: 13.6 µM
- TGI [23]: 3.05 µM
- TGI [24]: 11.6 µM
- TGI [25]: 6.84 µM
- TGI [26]: 10.9 µM
- TGI [27]: 14.5 µM
- TGI [28]: 2.52 µM
- TGI [29]: 14.8 µM
- TGI [30]: 2.35 µM
- TGI [31]: 8.48 µM
- TGI [32]: 6.41 µM
- TGI [33]: 7.28 µM
- TGI [34]: 10.1 µM
- TGI [35]: 13.4 µM
- TGI [36]: 1.94 µM
- TGI [37]: 11.9 µM
- TGI [38]: 29.1 µM
- TGI [39]: > 100 µM
- TGI [40]: 15.5 µM
- TGI [41]: 11.6 µM
- TGI [42]: 17.7 µM
- TGI [43]: 8.85 µM
- TGI [44]: 13.4 µM
- TGI [45]: 16.5 µM
- TGI [46]: 8.54 µM
- TGI [47]: 8.09 µM
- TGI [48]: 4.72 µM
- TGI [49]: 4.56 µM
- TGI [50]: 2.86 µM
- TGI [51]: 1.71 µM
- TGI [52]: 2.15 µM
- TGI [53]: 10.7 µM

SMILES: CSc1nc(-c2ccccc2)c2c(n1)-c1ccccc1CC2
- TGI [1]: > 100 µM
- TGI [2]: > 100 µM
- TGI [54]: > 100 µM
- TGI [3]: > 100 µM
- TGI [55]: > 100 µM
- TGI [4]: > 100 µM
- TGI [5]: > 100 µM
- TGI [6]: > 100 µM
- TGI [7]: > 100 µM
- TGI [8]: > 100 µM
- TGI [9]: > 100 µM
- TGI [10]: > 100 µM
- TGI [11]: > 100 µM
- TGI [12]: > 100 µM
- TGI [13]: > 100 µM
- TGI [14]: > 100 µM
- TGI [15]: > 100 µM
- TGI [17]: > 100 µM
- TGI [18]: > 100 µM
- TGI [19]: > 100 µM
- TGI [20]: > 100 µM
- TGI [21]: > 100 µM
- TGI [22]: > 100 µM
- TGI [23]: > 100 µM
- TGI [56]: > 100 µM
- TGI [24]: > 100 µM
- TGI [25]: > 100 µM
- TGI [27]: > 100 µM
- TGI [28]: > 100 µM
- TGI [30]: > 100 µM
- TGI [31]: > 100 µM
- TGI [32]: > 100 µM
- TGI [33]: > 100 µM
- TGI [57]: > 100 µM
- TGI [34]: > 100 µM
- TGI [58]: > 100 µM
- TGI [35]: > 100 µM
- TGI [36]: > 100 µM
- TGI [37]: > 100 µM
- TGI [38]: > 100 µM
- TGI [39]: > 100 µM
- TGI [41]: > 100 µM
- TGI [42]: > 100 µM
- TGI [43]: > 100 µM
- TGI [44]: > 100 µM
- TGI [45]: > 100 µM
- TGI [46]: > 100 µM
- TGI [48]: > 100 µM
- TGI [49]: > 100 µM
- TGI [50]: > 100 µM
- TGI [51]: > 100 µM
- TGI [52]: > 100 µM
- TGI [53]: > 100 µM

SMILES: CCC1=CC2CC(C(=O)OC)C1(N(C)C)C2=O (centres undefined)
- TGI [1]: > 100 µM
- TGI [54]: > 100 µM
- TGI [3]: > 100 µM
- TGI [55]: > 100 µM
- TGI [5]: > 100 µM
- TGI [6]: > 100 µM
- TGI [10]: > 100 µM
- TGI [12]: > 100 µM
- TGI [14]: > 100 µM
- TGI [15]: > 100 µM
- TGI [19]: > 100 µM
- TGI [20]: > 100 µM
- TGI [22]: > 100 µM
- TGI [23]: > 100 µM
- TGI [24]: > 100 µM
- TGI [25]: > 100 µM
- TGI [26]: > 100 µM
- TGI [27]: > 100 µM
- TGI [31]: > 100 µM
- TGI [32]: > 100 µM
- TGI [33]: > 100 µM
- TGI [57]: > 100 µM
- TGI [34]: > 100 µM
- TGI [58]: > 100 µM
- TGI [35]: > 100 µM
- TGI [36]: > 100 µM
- TGI [37]: > 100 µM
- TGI [39]: > 100 µM
- TGI [59]: > 100 µM
- TGI [41]: > 100 µM
- TGI [42]: > 100 µM
- TGI [45]: > 100 µM
- TGI [46]: > 100 µM
- TGI [47]: > 100 µM
- TGI [51]: > 100 µM
- TGI [53]: > 100 µM

SMILES: C=CC12CN(C)C3C4COC(CC41)C1(C(=O)Nc4ccccc41)C32 (centres undefined)
- TGI [1]: > 200 µM
- TGI [2]: > 200 µM
- TGI [54]: > 200 µM
- TGI [3]: > 200 µM
- TGI [55]: > 200 µM
- TGI [4]: > 200 µM
- TGI [5]: > 200 µM
- TGI [6]: > 200 µM
- TGI [8]: > 200 µM
- TGI [60]: > 200 µM
- TGI [9]: > 200 µM
- TGI [10]: > 200 µM
- TGI [11]: > 200 µM
- TGI [12]: > 200 µM
- TGI [13]: > 200 µM
- TGI [14]: > 200 µM
- TGI [15]: > 200 µM
- TGI [16]: > 200 µM
- TGI [17]: > 200 µM
- TGI [18]: > 200 µM
- TGI [19]: > 200 µM
- TGI [20]: > 200 µM
- TGI [61]: > 133 µM
- TGI [23]: > 200 µM
- TGI [56]: > 200 µM
- TGI [25]: > 200 µM
- TGI [27]: > 200 µM
- TGI [28]: > 200 µM
- TGI [62]: > 200 µM
- TGI [29]: > 200 µM
- TGI [30]: > 200 µM
- TGI [31]: > 200 µM
- TGI [32]: > 200 µM
- TGI [33]: > 200 µM
- TGI [63]: > 200 µM
- TGI [57]: > 195 µM
- TGI [34]: > 82.4 µM
- TGI [58]: > 186 µM
- TGI [35]: > 200 µM
- TGI [36]: > 200 µM
- TGI [37]: > 200 µM
- TGI [38]: > 200 µM
- TGI [40]: > 200 µM
- TGI [59]: > 200 µM
- TGI [41]: > 200 µM
- TGI [42]: > 200 µM
- TGI [43]: > 200 µM
- TGI [44]: > 200 µM
- TGI [45]: > 200 µM
- TGI [64]: > 200 µM
- TGI [46]: > 200 µM
- TGI [47]: > 200 µM
- TGI [48]: > 200 µM
- TGI [49]: > 200 µM
- TGI [50]: 29.2 µM
- TGI [51]: > 200 µM
- TGI [52]: > 200 µM

SMILES: COC(=O)[C@]1(C)CCC[C@@]2(C)C1CCC1=C[C@@]3(C(C)C)CC[C@]12OO3 (some centres undefined)
- TGI [2]: > 100 µM
- TGI [3]: 66.5 µM
- TGI [55]: 83.1 µM
- TGI [4]: > 100 µM
- TGI [6]: 65.7 µM
- TGI [7]: 40.9 µM
- TGI [8]: > 100 µM
- TGI [9]: 33.3 µM
- TGI [10]: > 100 µM
- TGI [11]: > 100 µM
- TGI [12]: 66.6 µM
- TGI [13]: > 100 µM
- TGI [14]: > 100 µM
- TGI [15]: 64.4 µM
- TGI [16]: 47.5 µM
- TGI [19]: 40.2 µM
- TGI [20]: > 100 µM
- TGI [21]: 74.1 µM
- TGI [22]: > 100 µM
- TGI [23]: 72.3 µM
- TGI [56]: > 100 µM
- TGI [24]: 63.8 µM
- TGI [25]: > 100 µM
- TGI [26]: > 100 µM
- TGI [27]: > 100 µM
- TGI [28]: > 100 µM
- TGI [29]: > 100 µM
- TGI [30]: 60.1 µM
- TGI [31]: 84.9 µM
- TGI [32]: 29.5 µM
- TGI [33]: 56.5 µM
- TGI [57]: 45.1 µM
- TGI [34]: > 100 µM
- TGI [58]: 42 µM
- TGI [35]: 67 µM
- TGI [36]: 35.4 µM
- TGI [37]: > 100 µM
- TGI [38]: 47 µM
- TGI [39]: 40.7 µM
- TGI [40]: > 100 µM
- TGI [59]: > 100 µM
- TGI [41]: > 100 µM
- TGI [42]: > 100 µM
- TGI [43]: 71.5 µM
- TGI [45]: > 100 µM
- TGI [47]: 87.2 µM
- TGI [49]: 51.2 µM
- TGI [51]: 73 µM
- TGI [52]: 45 µM
- TGI [53]: 68.3 µM

From PubChem BioAssay (NCI)
